According to PubChem BioAssay (NCI):
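Dose response: 5 concentrations. Exposure: 48 h. Format: 96-well plates. Endpoint: linear interpolation; highest concentration if not reached. GI50 = concentration required for 50% inhibition of growth. TGI marks complete inhibition of growth.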

How the values were obtained:
Assay in all cases: NCI tumour cell line growth inhibition, 48 h
PC-3 prostate = test system: PC-3 prostate
HOP-92 NSCLC = test system: HOP-92 NSCLC
HCT-116 colon = test system: HCT-116 colon
RPMI-8226 leukemia = test system: RPMI-8226 leukemia
SN12C renal = test system: SN12C renal
HL-60(TB) leukemia = test system: HL-60(TB) leukemia
SF-539 CNS = test system: SF-539 CNS
ACHN renal = test system: ACHN renal
BT-549 breast = test system: BT-549 breast
SNB-19 CNS = test system: SNB-19 CNS
KM12 colon = test system: KM12 colon
TK-10 renal = test system: TK-10 renal
M14 melanoma = test system: M14 melanoma
UACC-257 melanoma = test system: UACC-257 melanoma
SF-268 CNS = test system: SF-268 CNS
SNB-75 CNS = test system: SNB-75 CNS
SF-295 CNS = test system: SF-295 CNS
OVCAR-5 ovarian = test system: OVCAR-5 ovarian
HS 578T breast = test system: HS 578T breast
OVCAR-3 ovarian = test system: OVCAR-3 ovarian
T-47D breast = test system: T-47D breast
MOLT-4 leukemia = test system: MOLT-4 leukemia
EKVX NSCLC = test system: EKVX NSCLC
MALME-3M melanoma = test system: MALME-3M melanoma
NCI-H522 lung = test system: NCI-H522 lung
HT29 colon = test system: HT29 colon
SK-MEL-5 melanoma = test system: SK-MEL-5 melanoma
SK-OV-3 ovarian = test system: SK-OV-3 ovarian
DU-145 prostate = test system: DU-145 prostate
SK-MEL-28 melanoma = test system: SK-MEL-28 melanoma
LOX IMVI melanoma = test system: LOX IMVI melanoma
OVCAR-4 ovarian = test system: OVCAR-4 ovarian
RXF 393 renal = test system: RXF 393 renal
IGROV1 ovarian = test system: IGROV1 ovarian
MCF7 breast = test system: MCF7 breast
HCC-2998 colon = test system: HCC-2998 colon
NCI-H460 lung = test system: NCI-H460 lung
MDA-MB-435 = test system: MDA-MB-435
CCRF-CEM leukemia = test system: CCRF-CEM leukemia
A549 NSCLC = test system: A549 NSCLC
MDA-MB-231 breast = test system: MDA-MB-231 breast
COLO 205 colon = test system: COLO 205 colon
UO-31 renal = test system: UO-31 renal
SW-620 colon = test system: SW-620 colon
UACC-62 melanoma = test system: UACC-62 melanoma
NCI/ADR-RES ovarian = test system: NCI/ADR-RES ovarian
786-0 renal = test system: 786-0 renal
NCI-H226 lung = test system: NCI-H226 lung
OVCAR-8 ovarian = test system: OVCAR-8 ovarian
HCT-15 colon = test system: HCT-15 colon
A498 renal = test system: A498 renal
NCI-H23 lung = test system: NCI-H23 lung
SR leukemia = test system: SR leukemia
HOP-62 NSCLC = test system: HOP-62 NSCLC
U251 CNS = test system: U251 CNS
SK-MEL-2 melanoma = test system: SK-MEL-2 melanoma

`CC(C)CNCC(O)COc1ccc(C(C)(C)c2ccc(OCC(O)CNCC(C)C)cc2)cc1` (configuration not stated) showed a GI50 (PC-3 prostate) of 2.3 µM, a TGI (PC-3 prostate) of 7.02 µM and a GI50 (HOP-92 NSCLC) of 1.48 µM. The TGI (HOP-92 NSCLC) was 9.17 µM, the GI50 (HCT-116 colon) was 1.79 µM and the TGI (HCT-116 colon) was 3.59 µM. The GI50 (RPMI-8226 leukemia) was 1.88 µM, the TGI (RPMI-8226 leukemia) was 4.42 µM and the GI50 (SN12C renal) was 4.82 µM. The TGI (SN12C renal) was 18.3 µM, the GI50 (HL-60(TB) leukemia) was 1.86 µM and the TGI (HL-60(TB) leukemia) was 3.76 µM. The GI50 (SF-539 CNS) was 1.71 µM, the TGI (SF-539 CNS) was 3.23 µM and the GI50 (ACHN renal) was 1.82 µM. For the same compound, the TGI (ACHN renal) was 3.41 µM, the GI50 (BT-549 breast) was 7.82 µM and the TGI (BT-549 breast) was 21 µM. It also gave a GI50 (SNB-19 CNS) of 3.15 µM, a TGI (SNB-19 CNS) of 10.9 µM and a GI50 (KM12 colon) of 2.38 µM. It also gave a TGI (KM12 colon) of 7.41 µM, a GI50 (TK-10 renal) of 2.03 µM and a TGI (TK-10 renal) of 5.32 µM. The GI50 (M14 melanoma) was 1.76 µM, the TGI (M14 melanoma) was 3.43 µM and the GI50 (UACC-257 melanoma) was 1.73 µM. The TGI (UACC-257 melanoma) was 3.26 µM, the GI50 (SF-268 CNS) was 3.9 µM and the TGI (SF-268 CNS) was 17.4 µM. It also gave a GI50 (SNB-75 CNS) of 4 µM, a TGI (SNB-75 CNS) of 18.2 µM and a GI50 (SF-295 CNS) of 2.36 µM. It also gave a TGI (SF-295 CNS) of 6.68 µM, a GI50 (OVCAR-5 ovarian) of 6.1 µM and a TGI (OVCAR-5 ovarian) of 20.2 µM. For the same compound, the GI50 (HS 578T breast) was 5 µM, the TGI (HS 578T breast) was 21.9 µM and the GI50 (OVCAR-3 ovarian) was 1.92 µM. It also gave a TGI (OVCAR-3 ovarian) of 4.15 µM, a GI50 (T-47D breast) of 1.63 µM and a TGI (T-47D breast) of 3.63 µM. For the same compound, the GI50 (MOLT-4 leukemia) was 2.03 µM, the TGI (MOLT-4 leukemia) was 5.16 µM and the GI50 (EKVX NSCLC) was 3.78 µM. The TGI (EKVX NSCLC) was 17.8 µM, the GI50 (MALME-3M melanoma) was 1.71 µM and the TGI (MALME-3M melanoma) was 3.32 µM. The GI50 (NCI-H522 lung) was 1.87 µM, the TGI (NCI-H522 lung) was 3.82 µM and the GI50 (HT29 colon) was 1.62 µM. For the same compound, the TGI (HT29 colon) was 3.26 µM, the GI50 (SK-MEL-5 melanoma) was 1.68 µM and the TGI (SK-MEL-5 melanoma) was 3.05 µM. It also gave a GI50 (SK-OV-3 ovarian) of 4.09 µM, a TGI (SK-OV-3 ovarian) of 15.3 µM and a GI50 (DU-145 prostate) of 2.46 µM. For the same compound, the TGI (DU-145 prostate) was 7.49 µM, the GI50 (SK-MEL-28 melanoma) was 1.8 µM and the TGI (SK-MEL-28 melanoma) was 3.69 µM. The GI50 (LOX IMVI melanoma) was 1.57 µM, the TGI (LOX IMVI melanoma) was 3.04 µM and the GI50 (OVCAR-4 ovarian) was 6.52 µM. The TGI (OVCAR-4 ovarian) was 21.4 µM, the GI50 (RXF 393 renal) was 1.66 µM and the TGI (RXF 393 renal) was 3.67 µM. For the same compound, the GI50 (IGROV1 ovarian) was 3.66 µM, the TGI (IGROV1 ovarian) was 15.5 µM and the GI50 (MCF7 breast) was 1.73 µM. For the same compound, the TGI (MCF7 breast) was 3.48 µM, the GI50 (HCC-2998 colon) was 2.02 µM and the TGI (HCC-2998 colon) was 4.26 µM. It also gave a GI50 (NCI-H460 lung) of 1.97 µM, a TGI (NCI-H460 lung) of 4.11 µM and a GI50 (MDA-MB-435) of 1.73 µM. It also gave a TGI (MDA-MB-435) of 3.29 µM, a GI50 (CCRF-CEM leukemia) of 2.38 µM and a TGI (CCRF-CEM leukemia) of 6.18 µM. For the same compound, the GI50 (A549 NSCLC) was 2.08 µM, the TGI (A549 NSCLC) was 4.84 µM and the GI50 (MDA-MB-231 breast) was 1.5 µM. It also gave a TGI (MDA-MB-231 breast) of 3.25 µM, a GI50 (COLO 205 colon) of 1.59 µM and a TGI (COLO 205 colon) of 3.24 µM. It also gave a GI50 (UO-31 renal) of 1.53 µM, a TGI (UO-31 renal) of 2.89 µM and a GI50 (SW-620 colon) of 1.72 µM. It also gave a TGI (SW-620 colon) of 3.46 µM, a GI50 (UACC-62 melanoma) of 1.82 µM and a TGI (UACC-62 melanoma) of 3.4 µM. The GI50 (NCI/ADR-RES ovarian) was 7.63 µM, the TGI (NCI/ADR-RES ovarian) was 21.4 µM and the GI50 (786-0 renal) was 1.5 µM. For the same compound, the TGI (786-0 renal) was 3.03 µM, the GI50 (NCI-H226 lung) was 8.27 µM and the TGI (NCI-H226 lung) was 26.2 µM. For the same compound, the GI50 (OVCAR-8 ovarian) was 2.01 µM, the TGI (OVCAR-8 ovarian) was 4.42 µM and the GI50 (HCT-15 colon) was 2.2 µM. For the same compound, the TGI (HCT-15 colon) was 7.35 µM, the GI50 (A498 renal) was 11.3 µM and the TGI (A498 renal) was 25.1 µM. For the same compound, the GI50 (NCI-H23 lung) was 11.7 µM, the TGI (NCI-H23 lung) was 25.5 µM and the GI50 (SR leukemia) was 2.02 µM. It also gave a TGI (SR leukemia) of 4.39 µM, a GI50 (HOP-62 NSCLC) of 2.92 µM and a TGI (HOP-62 NSCLC) of 11.7 µM. For the same compound, the GI50 (U251 CNS) was 1.55 µM, the TGI (U251 CNS) was 2.91 µM and the GI50 (SK-MEL-2 melanoma) was 1.81 µM. For the same compound, the TGI (SK-MEL-2 melanoma) was 3.57 µM.
